This passage reports IC50, inhibition and Activity results from ChEMBL document CHEMBL6121006, “Marine natural product-inspired discovery of novel BRD4 inhibitors with anti-inflammatory activity” (Eur J Med Chem, 2025).

SMILES strings stand for the structures. The source made the active and inactive calls. No cut-off for these calls is given here.

As a reminder, the IC50 is the concentration that gives 50% inhibition. The inhibition is how much of the control response was suppressed. The low end stands for a weak effect, the high end for a strong effect.

For series [1], the target named is Bromodomain-containing protein 4 (Homo sapiens, UniProt O60885). Description: Inhibition of human recombinant BRD4 BD2 (349 to 460 residues) extracted from Escherichia coli BL21 (DE3) incubated for 2 hrs by TR-FRET assay.
Series [2] has as its target Bromodomain-containing protein 3 (Homo sapiens) (UniProt Q15059). Description: Inhibition of BRD3 BD2 (unknown origin) at 1 uM incubated for 2 hrs by TR-FRET assay relative to control. For orientation: In TR-FRET formats the signal depends on donor and acceptor labels being close together.
Series [3] has as its target Bromodomain testis-specific protein (Homo sapiens) (UniProt Q58F21). Description: Inhibition of BRDT BD1 (unknown origin) at 1 uM incubated for 2 hrs by TR-FRET assay relative to control.
Series [4] deals with CREB-binding protein (Homo sapiens) (UniProt Q92793). Description: Inhibition of CREBBP (unknown origin) at 1 uM incubated for 2 hrs by TR-FRET assay relative to control.
Chain of CREB-binding protein (Homo sapiens) (Q92793 2-2442 limits assumed): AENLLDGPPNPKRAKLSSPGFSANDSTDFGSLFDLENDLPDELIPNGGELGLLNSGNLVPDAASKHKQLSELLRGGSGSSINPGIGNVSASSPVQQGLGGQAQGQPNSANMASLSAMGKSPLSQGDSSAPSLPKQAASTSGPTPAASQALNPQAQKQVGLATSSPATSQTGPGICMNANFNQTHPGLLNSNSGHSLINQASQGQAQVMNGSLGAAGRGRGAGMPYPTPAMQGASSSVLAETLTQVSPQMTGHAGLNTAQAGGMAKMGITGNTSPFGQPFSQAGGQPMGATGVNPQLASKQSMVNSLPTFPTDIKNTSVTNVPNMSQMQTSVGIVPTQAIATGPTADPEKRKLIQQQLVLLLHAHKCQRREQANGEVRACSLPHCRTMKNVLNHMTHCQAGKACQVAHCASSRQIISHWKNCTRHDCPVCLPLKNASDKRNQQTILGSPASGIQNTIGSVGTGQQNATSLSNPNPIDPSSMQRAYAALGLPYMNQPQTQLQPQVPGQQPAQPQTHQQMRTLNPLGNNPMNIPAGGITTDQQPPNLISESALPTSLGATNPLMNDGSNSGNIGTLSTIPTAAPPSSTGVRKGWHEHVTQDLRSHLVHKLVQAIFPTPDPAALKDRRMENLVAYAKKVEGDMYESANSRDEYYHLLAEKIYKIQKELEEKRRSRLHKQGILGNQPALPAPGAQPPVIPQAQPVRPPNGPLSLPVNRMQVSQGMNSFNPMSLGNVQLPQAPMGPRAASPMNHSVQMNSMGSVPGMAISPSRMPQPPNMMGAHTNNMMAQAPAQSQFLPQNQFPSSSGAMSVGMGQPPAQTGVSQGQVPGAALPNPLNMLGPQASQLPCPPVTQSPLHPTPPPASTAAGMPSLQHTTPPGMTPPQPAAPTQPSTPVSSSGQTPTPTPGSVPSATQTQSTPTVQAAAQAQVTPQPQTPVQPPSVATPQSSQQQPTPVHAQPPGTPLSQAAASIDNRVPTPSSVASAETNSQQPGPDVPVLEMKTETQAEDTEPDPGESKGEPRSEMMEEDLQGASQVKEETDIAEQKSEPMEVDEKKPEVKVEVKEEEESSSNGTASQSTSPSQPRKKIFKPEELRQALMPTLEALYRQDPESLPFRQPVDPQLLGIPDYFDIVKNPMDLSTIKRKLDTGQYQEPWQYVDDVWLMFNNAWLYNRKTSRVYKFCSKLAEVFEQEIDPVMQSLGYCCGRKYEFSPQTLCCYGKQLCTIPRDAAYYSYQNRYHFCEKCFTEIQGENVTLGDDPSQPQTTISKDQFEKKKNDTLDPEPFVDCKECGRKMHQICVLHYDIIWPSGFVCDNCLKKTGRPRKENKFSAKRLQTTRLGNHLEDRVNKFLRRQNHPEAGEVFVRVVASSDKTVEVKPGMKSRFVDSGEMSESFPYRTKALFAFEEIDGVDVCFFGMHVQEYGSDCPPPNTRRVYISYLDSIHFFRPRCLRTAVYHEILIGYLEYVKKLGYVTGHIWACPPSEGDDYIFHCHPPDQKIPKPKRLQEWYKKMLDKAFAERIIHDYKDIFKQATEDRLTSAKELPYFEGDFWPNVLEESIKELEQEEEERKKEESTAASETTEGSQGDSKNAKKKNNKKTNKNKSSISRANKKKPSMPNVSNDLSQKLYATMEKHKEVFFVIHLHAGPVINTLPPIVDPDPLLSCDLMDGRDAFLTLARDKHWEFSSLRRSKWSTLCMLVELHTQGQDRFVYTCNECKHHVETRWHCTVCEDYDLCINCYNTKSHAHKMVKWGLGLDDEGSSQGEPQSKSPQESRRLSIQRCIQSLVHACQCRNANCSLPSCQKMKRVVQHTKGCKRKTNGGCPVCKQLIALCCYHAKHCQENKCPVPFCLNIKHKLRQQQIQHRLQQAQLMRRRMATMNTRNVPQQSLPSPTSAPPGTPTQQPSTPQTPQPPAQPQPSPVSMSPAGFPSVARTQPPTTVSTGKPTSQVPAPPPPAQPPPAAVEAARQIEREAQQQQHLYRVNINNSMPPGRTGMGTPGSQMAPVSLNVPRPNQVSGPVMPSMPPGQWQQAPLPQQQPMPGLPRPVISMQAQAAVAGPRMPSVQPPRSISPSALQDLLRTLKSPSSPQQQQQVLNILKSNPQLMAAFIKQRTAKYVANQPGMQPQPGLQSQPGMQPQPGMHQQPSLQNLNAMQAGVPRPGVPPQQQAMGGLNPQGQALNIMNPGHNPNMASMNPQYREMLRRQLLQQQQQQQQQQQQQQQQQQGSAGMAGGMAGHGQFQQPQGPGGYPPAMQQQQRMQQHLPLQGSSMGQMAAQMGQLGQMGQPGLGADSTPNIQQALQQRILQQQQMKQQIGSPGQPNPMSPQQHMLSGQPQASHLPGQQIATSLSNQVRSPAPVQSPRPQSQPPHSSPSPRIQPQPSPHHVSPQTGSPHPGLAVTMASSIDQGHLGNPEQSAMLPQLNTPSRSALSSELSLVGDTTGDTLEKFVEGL
Series [5] has as its system RAW264.7. Description: Cytotoxicity against mouse RAW264.7 cells at 20 uM measured after 24 hrs by CCK8 method. It is filed as functional, cell-based.
The test system of series [6] is RAW264.7. As to the kind of experiment: Anti-inflammatory activity in mouse RAW264.7 cells assessed as inhibition of LPS-induced IL-6 level preincubated with compound for 2 hrs followed by LPS stimulation and measured after 22 hrs by ELISA method. The conditions noted are these: dose 2.5-20 µM, time 24.0 hrs. In kind it is functional, cell-based. For orientation: ELISA stands for enzyme-linked immunosorbent assay.

Series [7] has as its system Mus musculus. Description: Antiinflammatory activity against C57BL/6 mouse acute inflammation model assessed as reduction in LPS induced lung edema at 50 to 100 mg/kg, po pre-administered for 2 hrs followed by LPS stimulation for 6 hrs. In kind it is functional, organism-based. The conditions noted are these: dose 50-100 mg/kg, time 8.0 hrs.
Series [8] deals with Mus musculus. Description: Antiinflammatory activity against C57BL/6 mouse acute inflammation model assessed as reduction in LPS induced lung destruction at 50 to 100 mg/kg, po pre-administered for 2 hrs followed by LPS stimulation for 6 hrs. It is filed as functional, organism-based. The conditions noted are these: dose 50-100 mg/kg, time 8.0 hrs.
The test system of series [9] is Mus musculus. As to the kind of experiment: Antiinflammatory activity against LPS-induced C57BL/6 mouse acute inflammation model assessed as decrease in number of interstitial vacuoles at 100 mg/kg, po pre-administered for 2 hrs followed by LPS stimulation for 6 hrs. It is filed as functional, organism-based. The conditions noted are these: time 8.0 hrs.
Series [10] is described as follows: Toxicity in C57BL/6 mouse effect on kidney at 100 mg/kg, po measured after 24 hrs. The conditions noted are these: in vivo. In kind it is organism-based.

Chain of Bromodomain-containing protein 3 (Homo sapiens) (Q15059 2-726 limits assumed): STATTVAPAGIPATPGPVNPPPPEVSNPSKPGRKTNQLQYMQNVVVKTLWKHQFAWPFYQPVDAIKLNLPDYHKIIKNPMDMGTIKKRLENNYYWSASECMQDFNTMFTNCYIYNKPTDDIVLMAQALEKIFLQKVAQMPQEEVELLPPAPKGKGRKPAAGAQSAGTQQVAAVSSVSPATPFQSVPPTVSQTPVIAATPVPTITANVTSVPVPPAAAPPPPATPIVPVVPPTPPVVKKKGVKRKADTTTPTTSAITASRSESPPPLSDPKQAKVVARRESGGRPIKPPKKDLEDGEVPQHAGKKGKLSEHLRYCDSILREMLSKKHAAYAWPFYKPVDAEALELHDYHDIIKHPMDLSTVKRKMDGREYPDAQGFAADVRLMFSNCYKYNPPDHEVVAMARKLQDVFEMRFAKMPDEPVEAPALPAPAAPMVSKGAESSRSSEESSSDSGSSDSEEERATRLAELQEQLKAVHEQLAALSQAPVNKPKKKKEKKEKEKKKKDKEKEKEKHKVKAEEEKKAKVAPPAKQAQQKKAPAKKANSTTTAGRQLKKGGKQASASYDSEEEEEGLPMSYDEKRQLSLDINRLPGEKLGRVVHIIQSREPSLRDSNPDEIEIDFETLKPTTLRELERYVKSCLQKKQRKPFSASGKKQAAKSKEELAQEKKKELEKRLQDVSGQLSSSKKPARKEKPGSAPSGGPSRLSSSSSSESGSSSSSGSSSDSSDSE

As for `COc1ccc(/C=C/c2nc3cc(OC)cc(OC)c3c(=O)[nH]2)cc1`, the 50% inhibitory concentration (IC50) in [1] was found to be 0.12 µM. Moreover, the inhibition turned out to be 44% in series [2], 6% in series [3] and 15% in series [4]. Also, the result in the series on RAW264.7 [5] was inactive. For the same compound, the values for the Activity result (in the series on RAW264.7 [6]; in series [10]) were “Dose-dependent-effect” and “Non-toxic”, respectively. The outcome with Mus musculus [7], with Mus musculus [8] and in the series with Mus musculus [9] was Active.
